Each structure is given as a SMILES string.

As usually defined, the IC50 is the midpoint of a concentration-inhibition curve. A lower IC50 goes with inhibition by little substance.

PI3Kδ, sequence (O00329 whole entry, the tested form may be a part, canonical isoform): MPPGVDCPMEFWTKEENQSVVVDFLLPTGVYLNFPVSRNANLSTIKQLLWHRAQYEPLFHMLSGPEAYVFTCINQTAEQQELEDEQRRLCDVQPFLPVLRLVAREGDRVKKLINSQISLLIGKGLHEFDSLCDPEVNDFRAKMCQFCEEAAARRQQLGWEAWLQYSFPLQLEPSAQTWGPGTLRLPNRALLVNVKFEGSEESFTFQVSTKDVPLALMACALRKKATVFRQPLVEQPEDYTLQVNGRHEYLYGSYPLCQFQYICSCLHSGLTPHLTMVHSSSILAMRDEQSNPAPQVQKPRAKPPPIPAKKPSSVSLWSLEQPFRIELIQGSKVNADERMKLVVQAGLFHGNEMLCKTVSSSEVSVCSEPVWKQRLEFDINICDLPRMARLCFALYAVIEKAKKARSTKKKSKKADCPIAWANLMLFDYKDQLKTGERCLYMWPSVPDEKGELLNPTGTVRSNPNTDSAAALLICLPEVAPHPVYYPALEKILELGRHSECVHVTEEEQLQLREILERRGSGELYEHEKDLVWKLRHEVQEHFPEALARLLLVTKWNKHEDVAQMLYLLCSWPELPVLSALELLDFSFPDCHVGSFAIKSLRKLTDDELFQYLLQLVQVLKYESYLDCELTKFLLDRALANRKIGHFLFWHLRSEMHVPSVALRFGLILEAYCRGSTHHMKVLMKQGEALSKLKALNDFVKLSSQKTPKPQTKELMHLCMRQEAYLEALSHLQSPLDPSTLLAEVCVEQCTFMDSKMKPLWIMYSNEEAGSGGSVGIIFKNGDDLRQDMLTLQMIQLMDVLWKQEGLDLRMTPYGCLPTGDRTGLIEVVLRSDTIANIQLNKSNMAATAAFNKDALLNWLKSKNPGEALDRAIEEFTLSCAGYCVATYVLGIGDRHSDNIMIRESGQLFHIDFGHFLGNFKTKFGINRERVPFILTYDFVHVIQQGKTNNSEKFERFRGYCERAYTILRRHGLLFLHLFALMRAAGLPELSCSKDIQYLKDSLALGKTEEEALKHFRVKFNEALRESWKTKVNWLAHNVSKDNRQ
PI3Kδ, sequence (P27986 whole entry partner, the tested form may be a part, canonical isoform): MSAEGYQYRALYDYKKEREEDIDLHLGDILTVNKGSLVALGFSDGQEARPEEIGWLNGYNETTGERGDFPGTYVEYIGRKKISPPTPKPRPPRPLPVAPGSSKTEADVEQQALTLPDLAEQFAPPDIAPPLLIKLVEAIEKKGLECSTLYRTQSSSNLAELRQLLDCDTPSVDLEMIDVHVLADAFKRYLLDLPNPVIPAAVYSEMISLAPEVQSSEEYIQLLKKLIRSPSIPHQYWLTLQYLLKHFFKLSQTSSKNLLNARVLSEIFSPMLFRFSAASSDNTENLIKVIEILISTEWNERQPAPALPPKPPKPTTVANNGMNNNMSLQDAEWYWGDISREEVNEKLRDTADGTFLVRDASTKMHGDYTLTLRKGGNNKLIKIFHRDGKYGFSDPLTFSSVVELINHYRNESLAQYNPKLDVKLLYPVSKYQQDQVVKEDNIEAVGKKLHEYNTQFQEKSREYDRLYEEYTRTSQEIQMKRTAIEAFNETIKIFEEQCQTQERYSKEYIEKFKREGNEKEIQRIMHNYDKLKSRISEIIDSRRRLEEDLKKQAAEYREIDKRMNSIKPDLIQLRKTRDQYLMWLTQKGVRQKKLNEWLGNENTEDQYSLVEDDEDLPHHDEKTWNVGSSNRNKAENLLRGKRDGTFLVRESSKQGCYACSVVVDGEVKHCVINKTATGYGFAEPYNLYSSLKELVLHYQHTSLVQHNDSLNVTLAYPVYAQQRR

For this test, the target named is PI3Kδ (Homo sapiens (Human), UniProt O00329). Description: Enzymatic activity of PI3K isoforms, TR-FRET assay (PI3Kδ). In kind it is biochemical. Conditions: 2× Km ATP, geometric mean if more than one value. The protocol:
Enzymatic activity of the class I PI3K isoforms in the presence of the compounds of Table 1 and Compounds X, Y and Z was measured using a time-resolved fluorescence resonance energy transfer (TR-FRET) assay. The TR-FRET assay was used to monitor formation of the product 3,4,5-inositol triphosphate molecule (PIP3) as it competed with fluorescently labeled PIP3 for binding to the GRP-1 pleckstrin homology domain protein. An increase in […] product results in a decrease in TR-FRET signal as the labeled fluorophore is displaced from the GRP-1 protein binding site.
Class I PI3K isoforms were expressed and purified as heterodimeric recombinant proteins. All assay reagents and buffers for the TR-FRET assay were purchased from Millipore. PI3K isoforms were assayed under initial rate conditions in the presence of 25 mM Hepes (pH 7.4), and 2× Km ATP (75-500 μM), 2 μM PIP2, 5% glycerol, 5 mM MgCl2, 50 mM NaCl, 0.05% (v/v) Chaps, 1 mM dithiothreitol, 1% (v/v) DMSO at the following concentrations for each isoforms: PI3Kα, PI3Kβ, and PI3Kδ between 25 and 50 pM, and PI3Kγ at 2 nM. After an assay reaction time of 30 minutes at 25° C., reactions were terminated with a final concentration of 10 mM EDTA, 10 nM labeled-PIP3, and 35 nM Europium labeled GRP-1 detector protein before reading TR-FRET on an Envision plate reader (Ex: 340 nm; Em: 615/665 nm; […] delay and 500 μs read window).
Data were normalized based on positive ([…] wortmanin) and negative (DMSO) controls. α, β, δ, and γ IC50 values were calculated from the fit of the dose-response curves to a four-parameter equation. All IC50 values represent geometric mean values if more than one value was obtained. IC50 values were reported in units of nM.
Background: TR-FRET usually uses a lanthanide donor and a delayed reading to cut background.
Molecule `Cc1ncc(F)cc1-n1c([C@H](C)Nc2nc(N)nc(N)c2C#N)nc2cccc(Cl)c2c1=O` (atropisomer, axis not shown) [Compound 44, (S)-2,4-diamino-6-(1-(5-chloro-3-(5-fluoro-2-methylpyridin-3-yl)-4-oxo-3,4-dihydroquinazolin-2-yl)ethylamino)pyrimidine-5-carbonitrile] showed an IC50 of 34 nM.

The molecule `Cc1c(F)cncc1-n1c([C@@H](Nc2nc(N)nc(N)c2C#N)C2CC2)nc2c(F)ccc(Cl)c2c1=O` (atropisomer, axis not shown) [Compound 65, (S)-2,4-Diamino-6-(((5-chloro-8-fluoro-3-(5-fluoro-4-methylpyridin-3-yl)-4-oxo-3,4-dihydroquinazolin-2-yl)(cyclopropyl)methyl)amino)pyrimidine-5-carbonitrile] showed an IC50 of 42 nM. Molecule `Cc1c(F)cncc1-n1c([C@@H](Nc2nc(N)nc(N)c2C#N)C2CC2)nc2c(F)ccc(Cl)c2c1=O` (atropisomer, axis not shown) [Compound 66, (S)-2,4-Diamino-6-(((5-chloro-8-fluoro-3-(5-fluoro-4-methylpyridin-3-yl)-4-oxo-3,4-dihydroquinazolin-2-yl)(cyclopropyl)methyl)amino)pyrimidine-5-carbonitrile] showed an IC50 of 3 nM. For `Cc1c(F)cncc1-n1c([C@H](C)Nc2nc(N)nc(N)c2C#N)nc2cccc(F)c2c1=O` (atropisomer, axis not shown) [Compound 67, (S)-2,4-diamino-6-((1-(5-fluoro-3-(5-fluoro-4-methylpyridin-3-yl)-4-oxo-3,4-dihydroquinazolin-2-yl)ethyl)amino)pyrimidine-5-carbonitrile], the IC50 was 120 nM. As to `Cc1c(F)cncc1-n1c([C@H](C)Nc2nc(N)nc(N)c2C#N)nc2cccc(F)c2c1=O` (atropisomer, axis not shown) [Compound 68, (S)-2,4-diamino-6-((1-(5-fluoro-3-(5-fluoro-4-methylpyridin-3-yl)-4-oxo-3,4-dihydroquinazolin-2-yl)ethyl)amino)pyrimidine-5-carbonitrile], it took 7 nM to reach half-maximal inhibition (IC50). `Cc1c(F)cncc1-n1c([C@@H](Nc2nc(N)nc(N)c2C#N)C2CC2)nc2cccc(Cl)c2c1=O` (atropisomer, axis not shown) [Compound 69, (S)-2,4-diamino-6-(((5-chloro-3-(5-fluoro-4-methylpyridin-3-yl)-4-oxo-3,4-dihydroquinazolin-2-yl)(cyclopropyl)methyl)amino)pyrimidine-5-carbonitrile] gave an IC50 of 60 nM. This IC50 is about 8.6-fold higher than that of the molecule before.

In the case of `Cc1c(F)cncc1-n1c([C@@H](Nc2nc(N)nc(N)c2C#N)C2CC2)nc2cccc(Cl)c2c1=O` (atropisomer, axis not shown) [Compound 70, (S)-2,4-diamino-6-(((5-chloro-3-(5-fluoro-4-methylpyridin-3-yl)-4-oxo-3,4-dihydroquinazolin-2-yl)(cyclopropyl)methyl)amino)pyrimidine-5-carbonitrile], 3 nM corresponded to half-maximal inhibition (IC50). Molecule `CC[C@H](Nc1nc(N)nc(N)c1C#N)c1nc2cccc(Cl)c2c(=O)n1-c1cncc(F)c1C` (atropisomer, axis not shown) [Compound 71, (S)-2,4-diamino-6-((1-(5-chloro-3-(5-fluoro-4-methylpyridin-3-yl)-4-oxo-3,4-dihydroquinazolin-2-yl)propyl)amino)pyrimidine-5-carbonitrile] displayed an IC50 of 49 nM. As for `CC[C@H](Nc1nc(N)nc(N)c1C#N)c1nc2cccc(Cl)c2c(=O)n1-c1cncc(F)c1C` (atropisomer, axis not shown) [Compound 72, (S)-2,4-diamino-6-((1-(5-chloro-3-(5-fluoro-4-methylpyridin-3-yl)-4-oxo-3,4-dihydroquinazolin-2-yl)propyl)amino)pyrimidine-5-carbonitrile], the IC50 worked out at 1 nM. Against the preceding molecule, the IC50 is about 49-fold lower. For `Cc1c(F)cncc1-n1c([C@H](C)Nc2nc(N)nc(N)c2C#N)nc2c(F)ccc(Cl)c2c1=O` (atropisomer, axis not shown) [Compound 73, (S)-2,4-diamino-6-((1-(5-chloro-8-fluoro-3-(5-fluoro-4-methylpyridin-3-yl)-4-oxo-3,4-dihydroquinazolin-2-yl)ethyl)amino)pyrimidine-5-carbonitrile], the IC50 is 59 nM. Consider `Cc1c(F)cncc1-n1c([C@H](C)Nc2nc(N)nc(N)c2C#N)nc2c(F)ccc(Cl)c2c1=O` (atropisomer, axis not shown) [Compound 74, (S)-2,4-diamino-6-((1-(5-chloro-8-fluoro-3-(5-fluoro-4-methylpyridin-3-yl)-4-oxo-3,4-dihydroquinazolin-2-yl)ethyl)amino)pyrimidine-5-carbonitrile], for which the IC50 is 1 nM. This IC50 is about 59-fold lower than that of the molecule before. For the molecule `Cc1c(F)cncc1-n1c([C@H](C)Nc2nc(N)nc(N)c2C#N)nc2ccc(F)cc2c1=O` (atropisomer, axis not shown) [Compound 75, (S)-2,4-diamino-6-((1-(6-fluoro-3-(5-fluoro-4-methylpyridin-3-yl)-4-oxo-3,4-dihydroquinazolin-2-yl)ethyl)amino)pyrimidine-5-carbonitrile], half-maximal inhibition (IC50) was put at 510 nM. Next, `Cc1c(F)cncc1-n1c([C@H](C)Nc2nc(N)nc(N)c2C#N)nc2ccc(F)cc2c1=O` (atropisomer, axis not shown) [Compound 76, (S)-2,4-diamino-6-((1-(6-fluoro-3-(5-fluoro-4-methylpyridin-3-yl)-4-oxo-3,4-dihydroquinazolin-2-yl)ethyl)amino)pyrimidine-5-carbonitrile]: 14 nM; `Cc1cncc(-n2c([C@H](C)Nc3nc(N)nc(N)c3C#N)nc3cccc(Cl)c3c2=O)c1C` (atropisomer, axis not shown) [Compound 77, (S)-2,4-diamino-6-((1-(5-chloro-3-(4,5-dimethylpyridin-3-yl)-4-oxo-3,4-dihydroquinazolin-2-yl)ethyl)amino)pyrimidine-5-carbonitrile]: 75 nM; `Cc1cncc(-n2c([C@H](C)Nc3nc(N)nc(N)c3C#N)nc3cccc(Cl)c3c2=O)c1C` (atropisomer, axis not shown) [Compound 78, (S)-2,4-diamino-6-((1-(5-chloro-3-(4,5-dimethylpyridin-3-yl)-4-oxo-3,4-dihydroquinazolin-2-yl)ethyl)amino)pyrimidine-5-carbonitrile]: 0.8 nM. In the case of `Cc1ccncc1-n1c([C@H](C)Nc2nc(N)nc(N)c2C#N)nc2cccc(C(F)(F)F)c2c1=O` (atropisomer, axis not shown) [Compound 79, (S)-2,4-Diamino-6-((1-(3-(4-methylpyridin-3-yl)-4-oxo-5-(trifluoromethyl)-3,4-dihydroquinazolin-2-yl)ethyl)amino)pyrimidine-5-carbonitrile], the IC50 was determined as 2 nM. Against the preceding molecule, the IC50 is about 2.5-fold higher. With `Cc1ccncc1-n1c([C@H](C)Nc2nc(N)nc(N)c2C#N)nc2cccc(C(F)(F)F)c2c1=O` (atropisomer, axis not shown) [Compound 80, (S)-2,4-Diamino-6-((1-(3-(4-methylpyridin-3-yl)-4-oxo-5-(trifluoromethyl)-3,4-dihydroquinazolin-2-yl)ethyl)amino)pyrimidine-5-carbonitrile], the IC50 was found to be 27 nM. Molecule `Cc1c(F)cncc1-n1c([C@@H](C)Nc2nc(N)nc(N)c2C#N)nc2cccc(Cl)c2c1=O` (atropisomer, axis not shown) [Compound 114, (R)-2,4-diamino-6-((1-(5-chloro-3-(5-fluoro-4-methylpyridin-3-yl)-4-oxo-3,4-dihydroquinazolin-2-yl)ethyl)amino)pyrimidine-5-carbonitrile] had an IC50 of 220 nM.

Source of the values: patent US9221795B2, “Phosphatidylinositol 3-kinase inhibitors” (Gilead Sciences, Inc., priority 2013, dated 2015).
